# According to patent publication US20250122174A1 (Shenzhen Yuanli Shenwan Innovative Medicine Co., Ltd., priority 2022, published 2025):
# Target: HPK1 (Homo sapiens (Human), UniProt Q92918)
# Test: HPK1 Inhibition Assay (ADP-Glo kinase assay)
# Format: biochemical
# Details: ATP 10 μM
# In short: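 ADP-Glo luminescence read-out after 1 h room-temperature kinase reaction with 10 μM ATP and 0.1 μg/ml MBP. Recombinant human HPK1 at 7.5 ng/μl; buffer 40 mM Tris pH 7.5, 20 mM MgCl2. Compounds serially diluted 5-fold over 10 points from 10 mM DMSO stock.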
# Sequence of HPK1 (Q92918 1-346 limits assumed): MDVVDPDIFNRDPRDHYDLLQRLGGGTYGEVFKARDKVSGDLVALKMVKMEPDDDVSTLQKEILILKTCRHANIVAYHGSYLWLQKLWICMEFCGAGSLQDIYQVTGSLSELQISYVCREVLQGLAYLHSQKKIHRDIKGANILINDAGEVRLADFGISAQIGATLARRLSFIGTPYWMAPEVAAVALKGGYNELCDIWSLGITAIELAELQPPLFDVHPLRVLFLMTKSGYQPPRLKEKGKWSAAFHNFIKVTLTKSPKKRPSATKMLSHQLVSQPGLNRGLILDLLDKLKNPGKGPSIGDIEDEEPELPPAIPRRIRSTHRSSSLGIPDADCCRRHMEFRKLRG
row,SMILES,IC50
1,"CC(C)n1cc2c(N3CC[C@@H](N)C3)c(NC(=O)c3ccc(=O)n(-c4c(F)cccc4F)n3)ccc2n1 [Example 114, (R)-N-(4-(3-aminopyrrolidin-1-yl)-2-isopropyl-2H-indazol-5-yl)-1-(2,6-difluorophenyl)-6-oxo-1,6-dihydropyridazine-3-carboxamide]",< 100 nM
2,"Cc1nn(C(C)C)c2ccc(NC(=O)c3ccc(=O)n(-c4c(F)cccc4F)n3)c(N3C[C@H](N)C4(CC4)C3)c12 [Example 202, (R)-N-(4-(7-amino-5-azaspiro[2.4]heptan-5-yl)-1-isopropyl-3-methyl-1H-indazol-5-yl)-1-(2,6-difluorophenyl)-6-oxo-1,6-dihydropyridazine-3-carboxamide]",< 100 nM
3,"Cc1nc2c(N3CCC(C)(N)CC3)c(NC(=O)c3ccc(=O)n(-c4c(F)cccc4F)n3)ccc2n1C [Example 76, N-(4-(4-amino-4-methylpiperidin-1-yl)-1,2-dimethyl-1H-benzo[d]imidazol-5-yl)-1-(2,6-difluorophenyl)-6-oxo-1,6-dihydropyridazine-3-carboxamide]",< 100 nM
4,"C[C@@H]1CN(c2c(NC(=O)c3ccc(=O)n(-c4c(F)cccc4F)n3)ccc3c2cnn3C2CCC2)C[C@@H]1N [Example 296, N-(4-((3R,4R)-3-amino-4-methylpyrrolidin-1-yl)-1-cyclobutyl-1H-indazol-5-yl)-1-(2,6-difluorophenyl)-6-oxo-1,6-dihydropyridazine-3-carboxamide]",< 100 nM
5,"Cc1nn(C(C)C)c2ccc(NC(=O)c3ccc(=O)n(-c4c(F)cccc4F)n3)c(N3C[C@@H](C)[C@@H](N)C3)c12 [Example 192, N-(4-((3R,4R)-3-amino-4-methylpyrrolidin-1-yl)-1-isopropyl-3-methyl-1H-indazol-5-yl)-1-(2,6-difluorophenyl)-6-oxo-1,6-dihydropyridazine-3-carboxamide]",< 100 nM
6,"CC(C)c1nc2c(N3CC[C@H](N)C3)c(NC(=O)c3ccnn(-c4c(F)cccc4F)c3=O)ccc2n1C [Example 46, (S)—N-(4-(3-aminopyrrolidin-1-yl)-2-isopropyl-1-methyl-1H-benzo[d]imidazol-5-yl)-2-(2,6-difluorophenyl)-3-oxo-2,3-dihydropyridazine-4-carboxamide]",< 100 nM
7,"COCCn1ncc2c(N3CC[C@@H](N)C3)c(NC(=O)c3ccc(=O)n(-c4c(F)cccc4F)n3)cc(F)c21 [Example 293, (R)-N-(4-(3-aminopyrrolidin-1-yl)-7-fluoro-1-(2-methoxyethyl)-1H-indazol-5-yl)-1-(2,6-difluorophenyl)-6-oxo-1,6-dihydropyridazine-3-carboxamide]",< 100 nM
8,"C[C@H]1CN(c2c(NC(=O)c3ccc(=O)n(-c4c(F)cccc4F)n3)ccc3nn([C@H]4CCOC4)cc23)C[C@@H]1N [Example 327, N-(4-((3R,4S)-3-amino-4-methylpyrrolidin-1-yl)-2-((S)-tetrahydrofuran-3-yl)-2H-indazol-5-yl)-1-(2,6-difluorophenyl)-6-oxo-1,6-dihydropyridazine-3-carboxamide]",< 100 nM
9,"Cc1nc2c(N3CCC[C@@H](N)C3)c(NC(=O)c3ccc(=O)n(-c4c(F)cccc4F)n3)ccc2n1C [Example 67, (R)—N-(4-(3-aminopiperidin-1-yl)-1,2-dimethyl-1H-benzo[d]imidazol-5-yl)-1-(2,6-difluorophenyl)-6-oxo-1,6-dihydropyridazine-3-carboxamide]",< 100 nM
10,"Cc1nc2c(N3C[C@H](N)C4(CC4)C3)c(NC(=O)c3ccc(=O)n(-c4c(F)cccc4F)n3)ccc2n1[C@H]1CCOC1 [Example 152, N-(4-((R)-7-amino-5-azaspiro[2.4]heptan-5-yl)-2-methyl-1-((S)-tetrahydrofuran-3-yl)-1H-benzo[d]imidazol-5-yl)-1-(2,6-difluorophenyl)-6-oxo-1,6-dihydropyridazine-3-carboxamide]",< 100 nM
11,"Cc1nc2c(N(C)CC3CNC3)c(NC(=O)c3ccc(=O)n(-c4c(F)cccc4F)n3)ccc2n1C [Example 86, N-(4-((azetidin-3-ylmethyl)(methyl)amino)-1,2-dimethyl-1H-benzo[d]imidazol-5-yl)-1-(2,6-difluorophenyl)-6-oxo-1,6-dihydropyridazine-3-carboxamide]",100 to 1000 nM
12,"C[C@@H]1CN(c2c(NC(=O)c3ccc(=O)n(-c4c(F)cccc4F)n3)ccc3c2cnn3C2CCCCC2)C[C@@H]1N [Example 297, N-(4-((3R,4R)-3-amino-4-methylpyrrolidin-1-yl)-1-cyclohexyl-1H-indazol-5-yl)-1-(2,6-difluorophenyl)-6-oxo-1,6-dihydropyridazine-3-carboxamide]",< 100 nM
13,"CC(C)n1ncc2c(N3C[C@@H](C)[C@@H](N)C3)c(NC(=O)c3ccc(=O)n(-c4c(F)cccc4F)n3)cc(F)c21 [Example 193, N-(4-((3R,4R)-3-amino-4-methylpyrrolidin-1-yl)-7-fluoro-1-isopropyl-1H-indazol-5-yl)-1-(2,6-difluorophenyl)-6-oxo-1,6-dihydropyridazine-3-carboxamide]",< 100 nM
14,"CC(C)c1nc2c(N3C[C@@H]4[C@H](N)[C@@H]4C3)c(NC(=O)c3ccc(=O)n(-c4c(F)cccc4F)n3)cc(F)c2n1C [Example 145, N-(4-((1R,5S,6r)-6-amino-3-azabicyclo[3.1.0]hexane-3-yl)-7-fluoro-2-isopropyl-1-methyl-1H-benzo[d]imidazol-5-yl)-1-(2,6-difluorophenyl)-6-oxo-1,6-dihydropyridazine-3-carboxamide]",< 100 nM
15,"Cc1nc2c(N3C[C@H](N)C4(CC4)C3)c(NC(=O)c3ccc(=O)n(-c4c(F)cccc4F)n3)ccc2n1C1CCOCC1 [Example 151, 1-(2,6-difluorophenyl)-N-(4-[(7R)-7-amino-5-azaspiro[2.4]heptan-5-yl]-2-methyl-1-(3,4,5,6-tetrahydro-2H-pyran-4-yl)benzo[d]imidazol-5-yl)-6-oxo-1,2-diazine-3-carboxamide]",< 100 nM
16,"N[C@H]1CN(c2c(NC(=O)c3ccc(=O)n(-c4c(F)cccc4F)n3)ccc3c2cnn3[C@H]2CCCOC2)CC12CC2 [Example 271, N-(4-((R)-7-amino-5-azaspiro[2.4]heptan-5-yl)-1-((S)-tetrahydro-2H-pyran-3-yl)-1H-indazol-5-yl)-1-(2,6-difluorophenyl)-6-oxo-1,6-dihydropyridazine-3-carboxamide]",< 100 nM
17,"COc1cccc(F)c1-c1cccc(C(=O)Nc2cc(F)c3nn(C)cc3c2N2CC[C@H](N)C2)[n+]1[O-] [Example 59, 2-((4-((S)-3-aminopyrrolidin-1-yl)-7-fluoro-2-methyl-2H-indazol-5-yl)carbamoyl)-6-(2-fluoro-6-methoxyphenyl)pyridine 1-oxide]",< 100 nM
18,"N[C@H]1CN(c2c(NC(=O)c3ccc(=O)n(-c4c(F)cccc4F)n3)ccc3c2cnn3C2CCOCC2)CC12CC2 [Example 251, (R)-N-(4-(7-amino-5-azaspiro[2.4]heptan-5-yl)-1-(tetrahydro-2H-pyran-4-yl)-1H-indazol-5-yl)-1-(2,6-difluorophenyl)-6-oxo-1,6-dihydropyridazine-3-carboxamide]",< 100 nM
19,"Cn1cc2c(N3CCC(N)CC3)c(NC(=O)c3ccc(=O)n(-c4c(F)cccc4F)n3)ccc2n1 [Example 177, N-(4-(4-aminopiperidin-1-yl)-2-methyl-2H-indazol-5-yl)-1-(2,6-difluorophenyl)-6-oxo-1,6-dihydropyridazine-3-carboxamide]",< 100 nM
